Experimental data: PMC1664607 (PLoS Medicine, 2006)
Values after ≈ are worked out from the molar mass of the structure shown. Read-outs that look alike come from different tables or passages of the source.

Experiments:
[1] = test system: Salmonella tyiphimurium TA98, TA100, TA1535, and TA1537, and Escherichia coli WP2 uvrA; assay: Bacterial reverse mutation (BRM) test, overall result; type: cell-based; conditions: absence and presence of S9 mix, OECD Guideline 471
Protocol: The BRM test was performed in accordance with OECD Guideline 471 using Salmonella tyiphimurium TA98, TA100, TA1535, and TA1537, and Escherichia coli WP2 uvrA [11]. Each bacterial strain was pre-cultured at 37 °C for 18 h using a nutrient broth (Nissui Pharmaceutical; http://www.nissui-pharm.co.jp/index_e.html). After adjustment to 2.4 at OD660 nm, each bacterial suspension was added to a test tube containing the designated compound in the absence or presence of rat liver microsome (S9) mix. After a 20-min incubation at 37 °C, top agar was added to each test tube and the contents were poured into minimum essential medium (Oriental Yeast; http://www.oyc.co.jp/e/index.htm). The number of revertants was counted 48 h after incubation at 37 °C.

[2] = test system: M. tuberculosis ATCC 25618 (H37Rv); assay: Susceptibility testing (agar dilution MIC); type: cell-based; conditions: Mycobacterium tuberculosis, 336 h; 7H11 agar, 37 °C, 14 d; read-out: MIC
[3] = test system: M. tuberculosis ATCC 35837 (H37Rv-E-R); assay: microbe, parasite or virus in culture; type: cell-based; conditions: Mycobacterium tuberculosis, 336 h
[4] = test system: M. tuberculosis ATCC 35820 (H37Rv-S-R); assay: microbe, parasite or virus in culture; type: cell-based; conditions: Mycobacterium tuberculosis, 336 h
[5] = test system: clinically isolated M. tuberculosis (27 test strains); assay: Checkerboard method, combination with existing TB drugs; type: cell-based; conditions: antagonism = FIC index >4.0
From the text: In addition, the efficacy of OPC-67683 in combination with currently used anti-TB drugs RFP, INH, EB, and SM was examined in vitro using the checkerboard method.

[6] = test system: intracellular M. tuberculosis H37Rv in THP-1 cells; assay: Activity against intracellular mycobacteria, 4-h pulsed exposure; type: cell-based, M. tuberculosis; human THP-1 cells; conditions: further 68-h culture
M. tuberculosis Kurono = assay: Therapeutic efficacy in an experimental mouse model of chronic TB; type: in vivo, ICR mice; conditions: for Log of Viable Counts/Lung: mean ± S.D., n = 5
CYP2C8/9 = assay: Tolubutamide methylhydroxylation in human liver microsomes; type: in vitro ADME; conditions: 400 μM tolbutamide
CYP2B6 = biological target: T1, CYP2B6 (Homo sapiens, UniProt P20813); conditions: […] 7-benzyloxyresorufin
T1 sequence (P20813 1-491): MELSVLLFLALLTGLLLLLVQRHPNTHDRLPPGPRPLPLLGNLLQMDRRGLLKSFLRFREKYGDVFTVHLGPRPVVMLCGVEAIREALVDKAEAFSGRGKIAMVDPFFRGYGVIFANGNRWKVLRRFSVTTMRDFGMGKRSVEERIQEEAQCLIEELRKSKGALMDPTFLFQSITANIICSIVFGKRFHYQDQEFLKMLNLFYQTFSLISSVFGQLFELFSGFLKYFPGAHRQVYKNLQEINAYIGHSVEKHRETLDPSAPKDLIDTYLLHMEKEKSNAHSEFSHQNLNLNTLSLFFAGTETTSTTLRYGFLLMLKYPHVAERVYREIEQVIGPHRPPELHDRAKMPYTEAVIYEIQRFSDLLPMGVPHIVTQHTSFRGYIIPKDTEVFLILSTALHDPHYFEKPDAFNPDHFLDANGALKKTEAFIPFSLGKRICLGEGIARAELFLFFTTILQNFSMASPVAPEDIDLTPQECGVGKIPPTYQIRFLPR

[7] = Plasma levels in an experimental mouse model of TB; conditions: in vivo, po

C[C@]1(COc2ccc(N3CCC(Oc4ccc(OC(F)(F)F)cc4)CC3)cc2)Cn2cc([N+](=O)[O-])nc2O1 [OPC-67683, (R)-2-methyl-6-nitro-2-(4-[4-(4-trifluoromethoxyphenoxy)piperidin-1-yl]phenoxymethyl}-2,3-dihydroimidazo[2,1-b]oxazole]
Mutagenic potential in the BRM test [1]: did not show mutagenicity
MIC [2]: 0.012 µg/mL (≈ 0.0225 µM)
MIC [3]: 0.012 µg/mL (≈ 0.0225 µM)
MIC [4]: 0.012 µg/mL (≈ 0.0225 µM)
Antagonistic activity in combination with RFP, INH, EB, and SM [5]: no antagonistic activity
Activity against intracellular M. tuberculosis H37Rv [6]: highly active
Log of Viable Counts/Lung (M. tuberculosis Kurono; 0.156 mg/kg once daily for 28 d (4 weeks)): 6.506 ± 0.294^a:NS, b:NS
Log of Viable Counts/Lung (M. tuberculosis Kurono; 0.313 mg/kg once daily for 28 d (4 weeks)): 5.959 ± 0.436^a:**, b:**
Log of Viable Counts/Lung (M. tuberculosis Kurono; 0.625 mg/kg once daily for 28 d (4 weeks)): 5.457 ± 0.245^a:**, b:**
Log of Viable Counts/Lung (M. tuberculosis Kurono; 1.25 mg/kg once daily for 28 d (4 weeks)): 4.867 ± 0.400^a:**, b:**
Log of Viable Counts/Lung (M. tuberculosis Kurono; 2.5 mg/kg once daily for 28 d (4 weeks)): 4.753 ± 0.297^a:**, b:**
Log of Viable Counts/Lung (M. tuberculosis Kurono; 5 mg/kg once daily for 28 d (4 weeks)): 4.272 ± 0.463^a:**, b:**
Log of Viable Counts/Lung (M. tuberculosis Kurono; 10 mg/kg once daily for 28 d (4 weeks)): 3.943 ± 0.465^a:**, b:**
Log of Viable Counts/Lung (M. tuberculosis Kurono; 20 mg/kg once daily for 28 d (4 weeks)): 3.495 ± 0.522^a:**, b:**
Log of Viable Counts/Lung (M. tuberculosis Kurono; 40 mg/kg once daily for 28 d (4 weeks)): 2.791 ± 0.671^a:**, b:**
Dose that could produce a CFU reduction of at least 95% (M. tuberculosis Kurono; lung, once daily for 28 d): 0.625 mg/kg
Percent of Control (CYP2C8/9; 10 μM): 107.2% of Control
Percent of Control (CYP2C8/9; 30 μM): 107.8% of Control
Percent of Control (CYP2C8/9; 100 μM): 108.5% of Control
Percent of Control (CYP2B6; 10 μM): 118.3% of Control
Percent of Control (CYP2B6; 30 μM): 112.8% of Control
Percent of Control (CYP2B6; 100 μM): 122.3% of Control
concentration at 1 h [7]: 133 ± 30 ng/mL
concentration at 2 h [7]: 193 ± 40 ng/mL
concentration at 4 h [7]: 220 ± 20 ng/mL
concentration at 6 h [7]: 297 ± 83 ng/mL
AUC(0-t) ([7]; 2.5 mg/kg): 4130 ng·h/mL
Cmax ([7]; 2.5 mg/kg): 297 ng/mL
Tmax ([7]; 2.5 mg/kg): 6 h
concentration at 12 h ([7]; 2.5 mg/kg): 166 ± 49 ng/mL
concentration at 24 h ([7]; 2.5 mg/kg): 49 ± 12 ng/mL
half-life ([7]; 2.5 mg/kg): 7.6 h
